Assay results reported in patent US20140243332A1, “METHODS OF TREATING CANCERS CHARACTERIZED BY ABERRENT ROS1 ACTIVITY” (Oregon Health & Science University, priority 2013, published 2014).

Key:
NIH3T3 SLC-ROS cells = experiment: Soft agar colony formation, NIH3T3 SLC-ROS; type: cell-based; details: at lower doses than crizotinib
Source text: The bottom panels are bar graphs indicating the number of colonies formed from the plates depicted in the top panels. The values indicate average colony number±SEM from 4 independent wells.

Ba/F3 FIG-ROS cells = molecular target: T1, Ba/F3 FIG-ROS cells (Homo sapiens, UniProt P08922); experiment: Apoptosis induction (Annexin V / 7-AAD), Ba/F3 FIG-ROS; type: cell-based; details: 15 nM, 48 hours
T1 construct: fused on or other part: GFP is co-expressed from an IRES in pMIG and is not fused; Q9HD26 (Golgi-associated PDZ and coiled-coil motif-containing protein)
Procedure: (§1) FIG. 5A is a set of three bar graphs depicting the induction of apoptosis in Ba/F3 FIG-ROS, Ba/F3 SLC-ROS and Ba/F3 ALK F1174L cells after 48 hours of treatment with the indicated doses of the indicated compounds. The number of cells that were Annexin V and 7-AAD positive after inhibitor treatment was normalized to number of cells staining positive with these markers with vehicle treatment (basal). A minimum of 2000 cells were counted per condition. Rate of apoptosis is shown as fold over basal. Basal apoptosis in Ba/F3 FIG-ROS, Ba/F3 SLC-ROS and Ba/F3 ALK F1174 cells was 3.6%, 2.8% and 1.2% respectively.

Ba/F3 SLC-ROS cells = molecular target: T2, Ba/F3 SLC-ROS cells (Homo sapiens, UniProt P08922); experiment: Apoptosis induction (Annexin V / 7-AAD), Ba/F3 SLC-ROS; type: cell-based; details: 15 nM, 48 hours
T2 construct: SLC-ROS-S (SLC-ROS) was cloned from cDNA made from HCC78 cells; fused on or other part: GFP is co-expressed from an IRES in pMIG and is not fused; O95436 (Sodium-dependent phosphate transport protein 2B)
Procedure: as §1

SLC-ROS = SLC-ROS (Homo sapiens, UniProt P08922); experiment: Immunoblot of NIH3T3 SLC-ROS lysates; type: cell-based; parameters: SLC34A2 N-terminal portion, fusion partner; expressed in transfected cells; host or cells: Ba/F3 (A15) and NIH3T3 (A25), retroviral pMIG; the other entry of the earlier key: SLC34A2 (O95436, Sodium-dependent phosphate transport protein 2B); details: NIH3T3 SLC-ROS cells, 1 hour, at lower doses than crizotinib
Procedure: The parental Ba/F3 cell line was cultured in RPMI 1640 medium with 10% FBS, L-glutamine, penicillin/streptomycin and 15% WEHI-conditioned media. Ba/F3 cell lines were maintained at densities of 0.5×10^6 to 1.5×10^6 per ml of media. FIG-ROS and SLC-ROS Ba/F3 lines were created by infecting the parental Ba/F3 with retrovirus expressing either human FIG-ROS-S (indicated FIG-ROS herein) or SLC-ROS-S (indicated SLC-ROS herein). Stable transfectant lines were sorted for GFP expression on a FACS Aria® flow cytometer. Cells were counted daily using Guava ViaCount® reagent and Guava Personal Cell Analysis® flow cytometer. […] Early passage NIH3T3 cells were infected with retrovirus expressing either FIG-ROS or SLC-ROS and sorted for GFP expression as described above for Ba/F3 cells. HCC78 cells were cultured in RPMI 1640 medium with 10% FBS, L-glutamine, and penicillin/streptomycin. This media is referred to as RPMI-10% FBS herein.

FIG-ROS tumors = experiment: In vivo treatment of mice bearing subcutaneous FIG-ROS cholangiocarcinoma tumors; details: 25 mg/kg oral gavage once daily, 9 days, immunodeficient mice; foretinib p<0.0001 for Lines 4 and 6
Procedure: Mouse chorangiocarcinoma cell lines expressing either FIG-ROS or shPten were subcutaneously injected into 11 week old female immune-deficient mice. […] Caliper measurements were taken at the time of treatment initiation and 24 hrs after administration of the last dose. Data in waterfall plots is calculated as follows: ((tumor volume Tend/tumor volume T0)−1). Caliper measurements of tumors were taken at T0 and Tend. Tumor volume is calculated as: 0.5*L*Ŵ2(L>W).
Tumors were formed by subcutaneous injection of the murine cholangiocarcinoma cell lines described above in the flanks of immunodeficient mice. […] Caliper measurements were taken at the time of treatment initiation (Ti) and 24 h after administration of the last dose (Tend).

[1] = molecular target: Ba/F3 FIG-ROS E1935G cells (Homo sapiens, UniProt P08922, E1935G, cells depend on it); experiment: Cell viability assay, Ba/F3 FIG-ROS E1935G; type: cell-based; details: Table 3, Ba/F3 FIG-ROS E1935G; nM; read-out: IC50 (the source's name)
Procedure: Cell lines were distributed in 96-well plates and incubated with the indicated concentrations of inhibitor for 72 hours. […] Ba/F3 cell lines were plated at 4×10^3 cells/well. HCC78 and mCC cell lines were plated at 1.5×10^3 cells/well. All cell types were seeded in a final volume of 80 microliters. A 20 microliter volume of five-fold concentrated inhibitor media was added. Cell proliferation was measured using a […] viability assay (CellTiter96 Aqueous One® Solution; Promega). A BioTek Synergy 2® plate reader was used to read the absorbance at 490 nm at 30 minutes and 1 hour after addition of MTS. To facilitate comparison between experiments, the raw MTS absorbance of vehicle (0.1% DMSO) treated cells was set to 1 and absorbance from inhibitor treated wells was normalized to the vehicle treated value. […] Data were normalized using Microsoft Excel® and further non-linear regression curve fit analysis of the normalized data for determination of IC50 was performed using Graphpad Prism® software.
The FIG-ROS-S fusion gene was synthesized using the GeneArt® service. FIG-ROS-S is denoted as FIG-ROS herein.

Q: How did the anchorage-independent colony formation (NIH3T3 SLC-ROS cells) turn out when `COc1cc2c(Oc3ccc(NC(=O)C4(C(=O)Nc5ccc(F)cc5)CC4)cc3F)ccnc2cc1OCCCN1CCOCC1` [foretinib, N1′-[3-fluoro-4-[[6-methoxy-7-(3-morpholinopropoxy)-4-quinolyl]oxy]phenyl]-N1-(4-fluorophenyl)cyclopropane-1,1-dicarboxamide] was run?
A: Its anchorage-independent colony formation is “strongly suppressed”.

Q: And the apoptosis induction (Ba/F3 FIG-ROS cells)?
A: Its apoptosis induction is “induced apoptosis”.

Q: And the apoptosis induction (Ba/F3 SLC-ROS cells)?
A: Its apoptosis induction is “induced apoptosis”.

Q: What about the SLC-ROS phosphorylation (SLC-ROS) of the same compound?
A: Its SLC-ROS phosphorylation is “strongly suppressed”.

Q: And the FIG-ROS tumor volume (FIG-ROS tumors)?
A: The FIG-ROS tumor volume was “dramatically and significantly reduced”.

Q: And the GI50 [1]?
A: The GI50 was 6.6 nM.
